pIC50, pKd: −log10 of the molar value.
Legend:
[1] = Drug exposure in rat administered as iv bolus dose; type: ADME, organism-based; settings: in vivo
[2] = Half life in human plasma; type: ADME, cell-free
[3] = Half life in dog plasma; type: ADME, cell-free, Canis lupus familiaris
Cereblon/Ikaros [4] = target: T1, Cereblon/Ikaros (Homo sapiens, UniProt Q96SW2+Q13422); test: PROTAC activity at CRBN/Ikaros in human OCI-Ly10 cells assessed as induction of Ikaros degradation measured after 24 hrs by MSD assay; type: cell-based
[5] = target: T2, Protein cereblon/Interleukin-1 receptor-associated kinase 4 (Homo sapiens, UniProt Q9NWZ3+Q96SW2); test: PROTAC activity at CRBN/IRAK4 in human OCI-Ly10 cells assessed as induction of IRAK4 degradation measured after 24 hrs by MSD assay; type: cell-based
Target sequence in this assay (Q9NWZ3 whole entry): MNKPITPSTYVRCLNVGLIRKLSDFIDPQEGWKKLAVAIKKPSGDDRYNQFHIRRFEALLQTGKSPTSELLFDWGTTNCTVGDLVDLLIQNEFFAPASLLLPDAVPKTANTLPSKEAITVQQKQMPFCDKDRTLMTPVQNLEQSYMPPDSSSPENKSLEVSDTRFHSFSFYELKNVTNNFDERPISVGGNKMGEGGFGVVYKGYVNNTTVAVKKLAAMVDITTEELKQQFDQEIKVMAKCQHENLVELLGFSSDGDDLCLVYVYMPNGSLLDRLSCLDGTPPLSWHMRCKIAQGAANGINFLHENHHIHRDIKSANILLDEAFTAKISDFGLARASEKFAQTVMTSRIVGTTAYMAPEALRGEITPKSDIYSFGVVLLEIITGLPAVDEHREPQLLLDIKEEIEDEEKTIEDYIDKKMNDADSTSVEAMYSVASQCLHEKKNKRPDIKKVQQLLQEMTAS
Target sequence in this assay (Q96SW2 whole entry): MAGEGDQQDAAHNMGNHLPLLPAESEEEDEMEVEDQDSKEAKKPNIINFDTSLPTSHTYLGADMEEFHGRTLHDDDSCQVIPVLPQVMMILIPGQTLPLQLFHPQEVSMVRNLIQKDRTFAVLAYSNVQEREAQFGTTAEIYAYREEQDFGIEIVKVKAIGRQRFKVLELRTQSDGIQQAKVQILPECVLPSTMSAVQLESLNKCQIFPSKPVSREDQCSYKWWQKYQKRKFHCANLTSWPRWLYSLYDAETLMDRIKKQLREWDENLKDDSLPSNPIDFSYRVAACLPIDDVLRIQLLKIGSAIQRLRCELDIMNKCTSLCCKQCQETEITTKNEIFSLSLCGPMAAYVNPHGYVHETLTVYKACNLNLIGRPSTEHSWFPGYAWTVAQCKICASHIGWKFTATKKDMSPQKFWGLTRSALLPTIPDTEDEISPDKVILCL

Protein cereblon = Protein cereblon (Homo sapiens, UniProt Q96SW2); test: Binding affinity to CRBN (unknown origin) by HTRF assay
[6] = Half life in rat plasma; type: ADME, cell-free
[7] = Half life in Non human primate plasma; type: ADME, cell-free; settings: primates
[8] = Drug exposure in Non human primate administered as iv dose; type: ADME, organism-based; settings: primates, in vivo
[9] = Metabolic stability in human liver microsomes assessed as intrinsic clearance at 1 uM measured upto 60 mins in presence of NADPH by UPLC/MS-MS analysis; type: ADME, Microsome; settings: read-out: CLH
[10] = Passive permeability of the compound in wild type MDCK cells across apical to basolateral side at 1 uM measured for 120 mins by LC-MS/MS analysis; type: ADME, cell-based, Canis lupus familiaris; settings: dog, read-out: permeability
[11] = Half life in rat at 2 mg/kg, iv by LC-MS/MS analysis; type: ADME, organism-based; settings: in vivo
[12] = Volume of distribution at steady state in rat at 2 mg/kg, iv by LC-MS/MS analysis; type: ADME, organism-based; settings: in vivo, read-out: Vdss
[13] = Clearance in rat at 2 mg/kg, iv by LC-MS/MS analysis; type: ADME, organism-based; settings: in vivo
[14] = Oral bioavailability in rat at 3 mg/kg by LC-MS/MS analysis; type: ADME, organism-based; settings: in vivo
[15] = AUC in rat at 3 mg/kg, po by LC-MS/MS analysis; type: ADME, organism-based; settings: in vivo
[16] = Metabolic stability in rat liver microsomes assessed as intrinsic clearance at 1 uM measured upto 60 mins in presence of NADPH by UPLC/MS-MS analysis; type: ADME, Microsome; settings: read-out: CLH
[17] = target: T2, Protein cereblon/Interleukin-1 receptor-associated kinase 4; test: PROTAC activity at CRBN/IRAK4 in human OCI-Ly10 cells assessed as induction of IRAK4 degradation measured after 24 hrs by MSD assay relative to control; type: cell-based
Target sequence in this assay (Q96SW2 whole entry, looked up): as the sequence (Q96SW2 whole entry) above
Target sequence in this assay (Q9NWZ3 whole entry, looked up): as the sequence (Q9NWZ3 whole entry) above

OCI-Ly10 = test: Antiproliferative activity against human OCI-Ly10 cells measured after 4 days by CellTiter-Glo Luminescent Cell Viability Assay; type: functional, cell-based; settings: Homo sapiens, OCI-Ly10, 96 h
[18] = target: Protein cereblon/Interleukin-1 receptor-associated kinase 4 (Homo sapiens, UniProt Q96SW2+Q9NWZ3); test: Binding affinity to CRBN/IRAK4 […] assessed as dissociation constant by DiscoverX Kd Elect assay
Cereblon/Ikaros [19] = target: T1, Cereblon/Ikaros; test: PROTAC activity at CRBN/Ikaros in human OCI-Ly10 cells assessed as induction of Ikaros degradation measured after 6 hrs by MSD assay relative to control; type: cell-based
[20] = AUC in rat at 5 mg/kg, po by LC-MS/MS analysis; type: ADME, organism-based; settings: in vivo
[21] = Oral bioavailability in rat at 5 mg/kg by LC-MS/MS analysis; type: ADME, organism-based; settings: in vivo

T1 sequence (Q96SW2 whole entry): as the sequence (Q96SW2 whole entry) above
T1 sequence (Q13422 whole entry): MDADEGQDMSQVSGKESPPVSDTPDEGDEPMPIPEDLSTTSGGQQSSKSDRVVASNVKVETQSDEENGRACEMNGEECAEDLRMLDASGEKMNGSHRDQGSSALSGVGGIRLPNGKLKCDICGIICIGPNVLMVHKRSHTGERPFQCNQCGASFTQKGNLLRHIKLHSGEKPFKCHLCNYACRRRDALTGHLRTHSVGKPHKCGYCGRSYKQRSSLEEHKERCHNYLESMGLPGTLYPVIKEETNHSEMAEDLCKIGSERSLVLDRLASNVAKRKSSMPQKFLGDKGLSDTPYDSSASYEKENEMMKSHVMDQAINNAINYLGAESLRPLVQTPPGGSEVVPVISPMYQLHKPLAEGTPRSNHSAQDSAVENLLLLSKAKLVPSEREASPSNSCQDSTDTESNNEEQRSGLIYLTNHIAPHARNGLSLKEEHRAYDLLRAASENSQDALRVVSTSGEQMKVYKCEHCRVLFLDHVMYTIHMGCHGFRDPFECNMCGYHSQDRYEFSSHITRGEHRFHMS
Chain of Protein cereblon (Q96SW2 whole entry): as the sequence (Q96SW2 whole entry) above
Chain of Protein cereblon/Interleukin-1 receptor-associated kinase 4 (Homo sapiens, UniProt Q96SW2+Q9NWZ3) (Q9NWZ3 whole entry): as the sequence (Q9NWZ3 whole entry) above
Chain of Protein cereblon/Interleukin-1 receptor-associated kinase 4 (Homo sapiens, UniProt Q96SW2+Q9NWZ3) (Q96SW2 whole entry): as the sequence (Q96SW2 whole entry) above

SMILES | DC50 (Cereblon/Ikaros [4]) [µM] | DC50 [5] [µM] | pIC50 (Protein cereblon) | microsomal CLint at 1 µM [9] [µL/min/mg] | Papp A→B at 2 h, 1 µM [10] [×10⁻⁶ cm/s] | half-life [11] [h] | Vd [12] [L/kg] | clearance [13] [mL/min/kg] | microsomal CLint at 1 µM [16] [µL/min/mg] | pIC50 (OCI-Ly10) | other results
CC(C)(O)c1cc2nc([C@H]3CC[C@H](CN4CC5(CC(CCNc6cccc7c6C(=O)N([C@@H]6CCC(=O)NC6=O)C7=O)C5)C4)CC3)sc2cc1NC(=O)c1cccc(C(F)(F)F)n1 | 0.009 | 0.019 | 6.96 |  |  |  |  |  |  |  | Drug uptake [1]: 48%; half-life [2]: 2.92 h; half-life [3]: 3.07 h; half-life [6]: 2.38 h; half-life [7]: 3.03 h; Drug uptake [8]: 30%
COc1cc2nc([C@H]3CC[C@H](CN4CC5(CC(CCNc6cccc7c6C(=O)N(C6CCC(=O)NC6=O)C7=O)C5)C4)CC3)oc2cc1NC(=O)c1cccc(C(F)(F)F)n1 (stereo partly drawn) | 0.006 | 0.19 |  | 3.9 | 0.34 | 12 | 9.6 | 9.4 | 2.9 | 7.28 | bioavailability [14]: 10%; AUC [15]: 0.5 µM·h; Emax [17]: 68%
CN(CCCCc1cccc2c1C(=O)N(C1CCC(=O)NC1=O)C2=O)C[C@H]1CC[C@H](n2cc3cc(NC(=O)c4cccc(C(F)(F)F)n4)c(C(C)(C)O)cc3n2)CC1 (stereo partly drawn) | > 1 | 0.02 | 7.04 |  | 1.3 |  |  |  |  | < 6.00 | pKd [18]: 9.85; Emax (Cereblon/Ikaros [19]): 40%
CC(C)(O)c1cc2nn([C@H]3CC[C@H](CN4CCC5(CC4)CC(CNc4cccc6c4C(=O)N(C4CCC(=O)NC4=O)C6=O)C5)CC3)cc2cc1NC(=O)c1cccc(C(F)(F)F)n1 (stereo partly drawn) | 0.006 | 0.006 | 7.36 | 2.8 | 2.2 | 11 | 13 | 15 | 2.1 | 8.10 | AUC [20]: 0.06 µM·h; bioavailability [21]: 1%
CN(CCCOc1cccc2c1CN(C1CCC(=O)NC1=O)C2=O)C[C@H]1CC[C@H](n2cc3cc(NC(=O)c4cccc(C(F)(F)F)n4)c(C(C)(C)O)cc3n2)CC1 (stereo partly drawn) | > 0.5 | 0.005 |  | 19 | 4.8 |  |  |  | 44 | 6.63 | pKd [18]: 9.66; Emax [17]: 80%
COc1cc2nc([C@H]3CC[C@H](CN4CC5(CC(CCNc6cccc7c6C(=O)N(C6CCC(=O)NC6=O)C7=O)C5)C4)CC3)sc2cc1NC(=O)c1cccc(C(F)(F)F)n1 (stereo partly drawn) | 0.014 | 0.035 |  | 1.5 | 0.18 | 24 | 9.7 | 4.8 | 1 | 7.14 | AUC [20]: 2.5 µM·h; bioavailability [21]: 23%
CC(C)(O)c1cc2nc([C@H]3CC[C@H](CN4CC5(CC(CCNc6cccc7c6C(=O)N([C@H]6CCC(=O)NC6=O)C7=O)C5)C4)CC3)sc2cc1NC(=O)c1cccc(C(F)(F)F)n1 | 0.002 | 0.0063 | 8.52 |  |  |  |  |  |  |  | Drug uptake [1]: 57%; half-life [2]: 4.03 h; half-life [3]: 2.58 h; half-life [6]: 2.15 h; half-life [7]: 3.35 h; Drug uptake [8]: 52%

Source: ChEMBL document CHEMBL5523727, “Discovery of KT-413, a Targeted Protein Degrader of IRAK4 and IMiD Substrates Targeting MYD88 Mutant Diffuse Large B-Cell Lymphoma” (J Med Chem, 2024)
